{
  "source": "ChEMBL document CHEMBL1146026",
  "about": "“Novel, potent, selective, and orally bioavailable human betaII-tryptase inhibitors” (Bioorg Med Chem Lett, 2006)",
  "key": {"Trypsin": {"target": "Trypsin (Homo sapiens, UniProt P07477+P07478+P35030)", "test": "Binding affinity to trypsin", "assay_type": "protein assay"}, "Tryptase beta-1 [1]": {"target": "T1, Tryptase beta-1 (Homo sapiens, UniProt Q15661)", "T1 sequence (Q15661 whole entry)": "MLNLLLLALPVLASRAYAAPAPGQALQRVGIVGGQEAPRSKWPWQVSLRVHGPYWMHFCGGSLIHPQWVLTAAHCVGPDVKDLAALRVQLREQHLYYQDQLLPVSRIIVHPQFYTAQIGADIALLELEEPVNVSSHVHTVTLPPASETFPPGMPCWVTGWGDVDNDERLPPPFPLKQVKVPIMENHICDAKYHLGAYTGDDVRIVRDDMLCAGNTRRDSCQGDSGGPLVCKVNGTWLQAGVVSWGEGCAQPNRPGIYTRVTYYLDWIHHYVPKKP", "test": "Binding affinity to human tryptase beta2"}, "[2]": {"test": "Bioavailability in ip dosed mouse", "assay_type": "ADME, organism-based", "conditions": "in vivo"}, "[3]": {"test": "Binding affinity to elastase", "design": "species or system Homo sapiens"}, "[4]": {"test": "Oral bioavailability in iv or po dosed rat", "assay_type": "ADME, organism-based", "conditions": "in vivo"}, "Tryptase beta-1 [5]": {"target": "T1, Tryptase beta-1", "test": "Binding affinity to recombinant cynomolgus monkey tryptase"}, "[6]": {"test": "Cmax in iv or po dosed rat", "assay_type": "ADME, organism-based", "conditions": "in vivo"}, "[7]": {"test": "Mean residence time in iv or po dosed rat", "assay_type": "ADME, organism-based", "conditions": "in vivo, read-out: Vdss"}, "[8]": {"test": "Volume of distribution in iv or po dosed rat", "assay_type": "ADME, organism-based", "conditions": "in vivo, read-out: Vc"}, "[9]": {"test": "AUC in iv or po dosed rat", "assay_type": "ADME, organism-based", "conditions": "plasma"}, "[10]": {"test": "Clearance in iv or po dosed rat", "assay_type": "ADME, organism-based", "conditions": "in vivo"}, "Tryptase [11]": {"target": "T2, Tryptase (Mus musculus, UniProt Q02844)", "T2 sequence (Q02844 whole entry)": "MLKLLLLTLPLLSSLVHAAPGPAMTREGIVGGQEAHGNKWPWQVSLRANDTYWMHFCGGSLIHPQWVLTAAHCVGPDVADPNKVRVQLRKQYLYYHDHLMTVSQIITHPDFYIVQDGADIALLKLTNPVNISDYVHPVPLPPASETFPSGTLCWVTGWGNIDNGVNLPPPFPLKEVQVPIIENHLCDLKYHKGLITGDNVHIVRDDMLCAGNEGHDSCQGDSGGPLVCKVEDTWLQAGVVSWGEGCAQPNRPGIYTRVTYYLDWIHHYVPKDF", "test": "Binding affinity to mouse tryptase"}, "Tryptase [12]": {"target": "T3, Tryptase (Rattus norvegicus, UniProt P27435)", "T3 sequence (P27435 whole entry)": "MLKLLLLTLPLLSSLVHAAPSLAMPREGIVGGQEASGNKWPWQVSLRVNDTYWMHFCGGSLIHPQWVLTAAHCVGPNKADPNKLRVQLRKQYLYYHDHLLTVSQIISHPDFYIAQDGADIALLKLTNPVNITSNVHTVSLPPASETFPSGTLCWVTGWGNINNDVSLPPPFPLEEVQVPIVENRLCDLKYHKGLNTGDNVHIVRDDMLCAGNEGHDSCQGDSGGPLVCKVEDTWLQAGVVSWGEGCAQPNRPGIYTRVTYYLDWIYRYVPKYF", "test": "Binding affinity to rat tryptase"}, "Tryptase [13]": {"target": "Tryptase (Canis lupus familiaris, UniProt P15944)", "sequence (P15944 whole entry)": "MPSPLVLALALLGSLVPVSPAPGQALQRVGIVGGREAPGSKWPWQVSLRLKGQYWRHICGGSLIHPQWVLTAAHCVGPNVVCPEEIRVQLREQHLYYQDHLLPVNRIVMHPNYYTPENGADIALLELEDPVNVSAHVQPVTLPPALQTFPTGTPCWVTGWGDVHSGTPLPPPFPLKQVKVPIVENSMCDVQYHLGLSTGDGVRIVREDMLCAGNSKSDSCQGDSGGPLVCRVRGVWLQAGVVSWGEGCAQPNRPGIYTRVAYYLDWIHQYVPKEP", "test": "Binding affinity to dog tryptase"}, "[14]": {"test": "Oral absorption in iv or po dosed rat", "assay_type": "ADME, organism-based", "conditions": "in vivo"}},
  "data": [
    {"smiles": "NCCC[C@H](NC(=O)OCc1ccccc1)C(=O)c1noc(Cc2ccccc2)n1", "values": [
      {"measurement": "Ki app", "setting": "Trypsin", "result": 68, "unit": "nM"},
      {"measurement": "Ki", "setting": "Tryptase beta-1 [1]", "result": 2700, "unit": "nM"}
    ]},
    {"smiles": "COc1cccc(CCOc2ccc(Cc3nc(C(=O)[C@H](CCCCN)NC(=O)OCc4ccccc4)no3)cc2)c1", "values": [
      {"measurement": "Ki app", "setting": "Trypsin", "result": 59, "unit": "nM"},
      {"measurement": "Ki", "setting": "Tryptase beta-1 [1]", "result": 41, "unit": "nM"}
    ]},
    {"smiles": "NCCCC[C@H](NC(=O)OCc1ccccc1)C(=O)c1noc(Cc2ccc(OCCc3ccc(Cl)c(Cl)c3)cc2)n1", "values": [
      {"measurement": "Ki app", "setting": "Trypsin", "result": 280, "unit": "nM"},
      {"measurement": "Ki", "setting": "Tryptase beta-1 [1]", "result": 10, "unit": "nM"}
    ]},
    {"smiles": "NCCCC[C@H](NC(=O)OCc1ccccc1)C(=O)c1noc(Cc2ccc(OCCc3ccc(F)cc3)cc2)n1", "values": [
      {"measurement": "Ki app", "setting": "Trypsin", "result": 110, "unit": "nM"},
      {"measurement": "Ki", "setting": "Tryptase beta-1 [1]", "result": 16, "unit": "nM"}
    ]},
    {"smiles": "NCCCC[C@H](NC(=O)OCc1ccccc1)C(=O)c1noc(Cc2cccc(OCCc3ccccc3)c2)n1", "values": [
      {"measurement": "Ki app", "setting": "Trypsin", "result": 82, "unit": "nM"},
      {"measurement": "Ki", "setting": "Tryptase beta-1 [1]", "result": 360, "unit": "nM"}
    ]},
    {"smiles": "NCCCC[C@H](NC(=O)OCc1ccccc1)C(=O)c1noc(Cc2ccc(OCCc3ccc(Cl)cc3Cl)cc2)n1", "values": [
      {"measurement": "Ki app", "setting": "Trypsin", "result": 410, "unit": "nM"},
      {"measurement": "Ki", "setting": "Tryptase beta-1 [1]", "result": 96, "unit": "nM"}
    ]},
    {"smiles": "CCOC(=O)N[C@@H](CCCCN)C(=O)c1noc(Cc2ccc(OCCc3ccccc3)cc2)n1", "values": [
      {"measurement": "bioavailability", "setting": "[2]", "result": 68, "unit": "%"},
      {"measurement": "Ki", "setting": "[3]", "result": "> 150000", "unit": "nM"},
      {"measurement": "bioavailability", "setting": "[4]", "result": 8.4, "unit": "%"},
      {"measurement": "Ki", "setting": "Tryptase beta-1 [5]", "result": 46.5, "unit": "nM"},
      {"measurement": "Cmax", "setting": "[6]", "result": 590, "unit": "nM"},
      {"measurement": "Vd", "setting": "[7]", "result": 7, "unit": "L/kg"},
      {"measurement": "Vd", "setting": "[8]", "result": 0.91, "unit": "L/kg"},
      {"measurement": "AUC", "setting": "[9]", "result": 0.183, "unit": "µM·h"},
      {"measurement": "clearance", "setting": "[10]", "result": 93, "unit": "mL/min/kg"},
      {"measurement": "Ki", "setting": "Tryptase [11]", "result": 43.5, "unit": "nM"},
      {"measurement": "Ki", "setting": "Tryptase [12]", "result": 5.5, "unit": "nM"},
      {"measurement": "Ki", "setting": "Tryptase [13]", "result": 380, "unit": "nM"},
      {"measurement": "Fa", "setting": "[14]", "result": 18, "unit": "%"}
    ]},
    {"smiles": "COc1ccc(CCOc2ccc(Cc3nc(C(=O)[C@H](CCCCN)NC(=O)OCc4ccccc4)no3)cc2)cc1OC", "values": [
      {"measurement": "Ki app", "setting": "Trypsin", "result": 11, "unit": "nM"},
      {"measurement": "Ki", "setting": "Tryptase beta-1 [1]", "result": 24, "unit": "nM"}
    ]},
    {"smiles": "NCCCC[C@H](NC(=O)OCc1ccccc1)C(=O)c1noc(Cc2cccc(OCCCc3ccccc3)c2)n1", "values": [
      {"measurement": "Ki app", "setting": "Trypsin", "result": 92, "unit": "nM"},
      {"measurement": "Ki", "setting": "Tryptase beta-1 [1]", "result": 120, "unit": "nM"}
    ]},
    {"smiles": "NCCCC[C@H](NC(=O)OCc1ccccc1)C(=O)c1noc(Cc2ccc(OCCc3ccccc3)cc2)n1", "values": [
      {"measurement": "Ki app", "setting": "Trypsin", "result": 35, "unit": "nM"}
    ]},
    {"smiles": "NCCCC[C@H](NC(=O)OCc1ccccc1)C(=O)c1noc(Cc2ccc(OCCc3cccc4ccccc34)cc2)n1", "values": [
      {"measurement": "Ki app", "setting": "Trypsin", "result": 95, "unit": "nM"},
      {"measurement": "Ki", "setting": "Tryptase beta-1 [1]", "result": 78, "unit": "nM"}
    ]},
    {"smiles": "NCCCC[C@H](NC(=O)OCc1ccccc1)C(=O)c1noc(Cc2ccc(OCc3ccccc3)cc2)n1", "values": [
      {"measurement": "Ki app", "setting": "Trypsin", "result": 24, "unit": "nM"},
      {"measurement": "Ki", "setting": "Tryptase beta-1 [1]", "result": 180, "unit": "nM"}
    ]},
    {"smiles": "NCCCC[C@H](NC(=O)OCc1ccccc1)C(=O)c1noc(Cc2ccc(OCCC3CCCCC3)cc2)n1", "values": [
      {"measurement": "Ki app", "setting": "Trypsin", "result": 1000, "unit": "nM"},
      {"measurement": "Ki", "setting": "Tryptase beta-1 [1]", "result": 1100, "unit": "nM"}
    ]},
    {"smiles": "NCCCC[C@H](NC(=O)OCc1ccccc1)C(=O)c1noc(Cc2ccc(OCCc3ccc(Cl)cc3)cc2)n1", "values": [
      {"measurement": "Ki app", "setting": "Trypsin", "result": 270, "unit": "nM"},
      {"measurement": "Ki", "setting": "Tryptase beta-1 [1]", "result": 14, "unit": "nM"}
    ]},
    {"smiles": "COc1ccc(CCOc2ccc(Cc3nc(C(=O)[C@H](CCCCN)NC(=O)OCc4ccccc4)no3)cc2)cc1", "values": [
      {"measurement": "Ki app", "setting": "Trypsin", "result": 34, "unit": "nM"},
      {"measurement": "Ki", "setting": "Tryptase beta-1 [1]", "result": 19, "unit": "nM"}
    ]},
    {"smiles": "NCCCC[C@H](NC(=O)OCc1ccccc1)C(=O)c1noc(Cc2ccc(OCCc3cccc(Cl)c3)cc2)n1", "values": [
      {"measurement": "Ki app", "setting": "Trypsin", "result": 190, "unit": "nM"},
      {"measurement": "Ki", "setting": "Tryptase beta-1 [1]", "result": 13, "unit": "nM"}
    ]},
    {"smiles": "NCCCC[C@H](NC(=O)OCc1ccccc1)C(=O)c1noc(Cc2ccc(OCCc3ccc4ccccc4c3)cc2)n1", "values": [
      {"measurement": "Ki app", "setting": "Trypsin", "result": 140, "unit": "nM"},
      {"measurement": "Ki", "setting": "Tryptase beta-1 [1]", "result": 27, "unit": "nM"}
    ]},
    {"smiles": "NCCCC[C@H](NC(=O)OCc1ccccc1)C(=O)c1noc(Cc2ccc(OCCCc3ccccc3)cc2)n1", "values": [
      {"measurement": "Ki app", "setting": "Trypsin", "result": 41, "unit": "nM"},
      {"measurement": "Ki", "setting": "Tryptase beta-1 [1]", "result": 25, "unit": "nM"}
    ]}
  ]
}
